“Also recorded” adds a separate entry of the source.
Assays:
Format in all cases: cell-based
[1] = test system: prostate cancer cell lines (LNCaP, DU145) and brain and/or nervous system cancer cell line (DAOY); experiment: Cell proliferation of prostate and brain/nervous system cancer cell lines; conditions: DU145, DAOY cells
Excerpt: (§1) In a multitude of experiments, using prostate cancer cell lines (both androgen-dependent (LNCaP), and androgen-independent (DU145) cells), and a brain and/or nervous system cancer cell line (DAOY), the present inventors have studied the effects of 2-ME and 16-ES on cell proliferation and the induction of apoptosis, in a number of ways.

[2] = test system: prostate cancer cell lines (LNCaP, DU145) and brain and/or nervous system cancer cell line (DAOY); experiment: Induction of apoptosis in prostate and brain/nervous system cancer cell lines; conditions: DU145, DAOY cells
Excerpt: as §1

LNCaP cells = experiment: Cell growth of LNCaP prostate cancer cells after treatment; conditions: for inhibition of growth of LNCaP cells: 72 hours of treatment, FIG. 7
Procedure: Cells were treated with either eugenol (0.25, 0.5, 0.75 or 1 mM) or 2-ME (0.5, 1, 2 or 3 mM) or both (0.25, 0.5, 0.75 or 1 mM of eugenol along with 0.5 mM of 2-ME). Cell growth was measured following 72 hours of treatment as described above.

DU145 cells = experiment: Cell growth of DU145 prostate cancer cells after treatment; conditions: Homo sapiens, DU-145, FIG. 6, read-out: concentration necessary to see 50% inhibition of growth

Row | SMILES | inhibition of cancerous cell growth [1] | pro-apoptotic effects [2] | inhibition of growth of LNCaP cells (LNCaP cells; 0.5 mM of 2-ME) | inhibition of growth of LNCaP cells (LNCaP cells; 0.25 mM of eugenol) | IC50 (LNCaP cells; Homo sapiens, LNCaP, read-out: concentration necessary to see 50% inhibition of growth) [µM] | IC50 (DU145 cells) [mM]
1 | C[C@]12CC[C@@H]3c4ccc(O)cc4CC[C@H]3[C@@H]1C[C@H](O)[C@@H]2O [16-ES, 16-epiestriol] | does not | does not | – | – | – | –
2 | COc1cc2c(cc1O)CC[C@@H]1[C@@H]2CC[C@]2(C)[C@@H](O)CC[C@@H]12 [2-ME, 2-methoxyoestradiol] | significantly inhibits cancerous cell growth; also recorded: inhibits the growth | has pro-apoptotic effects | about 20% | – | – | –
3 | C=CCc1ccc(O)c(OC)c1 [eugenol] | – | – | – | about 30% | ~750 | > 2
